{
  "source": "paper PMC5218480",
  "about": "(PLoS ONE, 2017)",
  "system": "MV-4-11 cells",
  "assay": "Gene expression microarray analysis (Affymetrix PrimeView) and GSEA",
  "format": "cell-based, human",
  "design": "RFU PODN (11730768_x_at) / Fold change /veh PODN (11730768_x_at) / RFU LINC00158 (11744669_a_at) / Fold change /veh LINC00158 (11744669_a_at) / RFU DUSP10 (11751237_a_at) / Fold change /veh DUSP10 (11751237_a_at) / RFU ID3 (11757404_x_at) / Fold change /veh ID3 (11757404_x_at) / RFU PLEKHG5 (11737974_s_at) / Fold change /veh PLEKHG5 (11737974_s_at) / RFU LRRC4B (11730491_at) / Fold change /veh LRRC4B (11730491_at) / RFU GIMAP4 (11747438_a_at) / Fold change /veh GIMAP4 (11747438_a_at) / RFU KRT8 (11758183_x_at) / Fold change /veh KRT8 (11758183_x_at) / RFU CNN1 (11734310_a_at) / Fold change /veh CNN1 (11734310_a_at) / RFU VPS37D (11726825_at) / Fold change /veh VPS37D (11726825_at) / RFU C10orf10 (11716522_x_at) / Fold change /veh C10orf10 (11716522_x_at) / RFU KIR2DL2 /// KIR2DL4 /// KIR2DL5A /// KIR2DL5B /// KIR2DS1 /// KIR2DS2 /// KIR2DS3 /// KIR2DS4 /// KIR3DL3 /// KIR3DL3 /// KIR3DS1 (11738374_at) / Fold change /veh KIR2DL2 /// KIR2DL4 /// KIR2DL5A /// KIR2DL5B /// KIR2DS1 /// KIR2DS2 /// KIR2DS3 /// KIR2DS4 /// KIR3DL3 /// KIR3DL3 /// KIR3DS1 (11738374_at) / RFU C1QL1 (11718748_at) / Fold change /veh C1QL1 (11718748_at) / RFU TMPRSS4 (11747572_a_at) / Fold change /veh TMPRSS4 (11747572_a_at) / RFU HAMP (11756126_x_at) / Fold change /veh HAMP (11756126_x_at) / RFU RNFT2 (11725882_a_at) / Fold change /veh RNFT2 (11725882_a_at) / RFU NR4A2 (11747474_a_at) / Fold change /veh NR4A2 (11747474_a_at) / RFU ABCC12 (11746883_a_at) / Fold change /veh ABCC12 (11746883_a_at) / RFU TMEM136 (11760407_x_at) / Fold change /veh TMEM136 (11760407_x_at) / RFU CLDN22 /// WWC2 (11732394_at) / Fold change /veh CLDN22 /// WWC2 (11732394_at) / RFU HLA-DPB1 (11760878_x_at) / Fold change /veh HLA-DPB1 (11760878_x_at) / RFU SPINT1 (11716480_a_at) / Fold change /veh SPINT1 (11716480_a_at) / RFU GAP43 (11754022_s_at) / Fold change /veh GAP43 (11754022_s_at) / RFU A4GNT (11735810_at) / Fold change /veh A4GNT (11735810_at) / RFU PRB3 (11715151_x_at) / Fold change /veh PRB3 (11715151_x_at) / RFU TUBB4B (11761932_at) / Fold change /veh TUBB4B (11761932_at) / RFU CAPN14 (11732068_a_at) / Fold change /veh CAPN14 (11732068_a_at) / RFU TMCC2 (11721928_a_at) / Fold change /veh TMCC2 (11721928_a_at) / RFU IRGQ (11745062_a_at) / Fold change /veh IRGQ (11745062_a_at) / RFU FAM174B (11720279_a_at) / Fold change /veh FAM174B (11720279_a_at) / RFU TMPRSS4 (11748680_a_at) / Fold change /veh TMPRSS4 (11748680_a_at) / RFU FAM212B (11763350_a_at) / Fold change /veh FAM212B (11763350_a_at) / RFU PLEKHG5 (11743358_a_at) / Fold change /veh PLEKHG5 (11743358_a_at) / RFU ZSCAN30 (11745921_a_at) / Fold change /veh ZSCAN30 (11745921_a_at) / RFU CMKLR1 (11741424_a_at) / Fold change /veh CMKLR1 (11741424_a_at) / RFU LOC101060620 /// MAPK8IP1 (11723275_at) / Fold change /veh LOC101060620 /// MAPK8IP1 (11723275_at) / RFU SPTSSB (11747773_x_at) / Fold change /veh SPTSSB (11747773_x_at) / RFU PRSS12 (11739890_at) / Fold change /veh PRSS12 (11739890_at) / RFU BIN1 (11741810_x_at) / Fold change /veh BIN1 (11741810_x_at) / RFU WNT11 (11732464_a_at) / Fold change /veh WNT11 (11732464_a_at) / RFU C10orf10 (11716521_a_at) / Fold change /veh C10orf10 (11716521_a_at) / RFU C5orf56 (11738089_at) / Fold change /veh C5orf56 (11738089_at) / RFU CYB561 (11721691_x_at) / Fold change /veh CYB561 (11721691_x_at) / RFU ANKRD19P (11752326_a_at) / Fold change /veh ANKRD19P (11752326_a_at) / RFU OR2T12 /// OR2T33 /// OR2T8 (11738714_s_at) / Fold change /veh OR2T12 /// OR2T33 /// OR2T8 (11738714_s_at) / RFU VCAN (11748164_a_at) / Fold change /veh VCAN (11748164_a_at) / RFU JSRP1 (11732532_at) / Fold change /veh JSRP1 (11732532_at) / RFU KRTAP10-11 (11738290_x_at) / Fold change /veh KRTAP10-11 (11738290_x_at) / RFU MYO3A (11730013_a_at) / Fold change /veh MYO3A (11730013_a_at) / RFU EBF3 (11725865_a_at) / Fold change /veh EBF3 (11725865_a_at) / RFU CAMK2N1 (11719241_x_at) / Fold change /veh CAMK2N1 (11719241_x_at) / RFU C5orf56 (11738088_a_at) / Fold change /veh C5orf56 (11738088_a_at) / RFU OLFML3 (11715873_a_at) / Fold change /veh OLFML3 (11715873_a_at) / RFU LOC100653217 /// NTM (11731650_a_at) / Fold change /veh LOC100653217 /// NTM (11731650_a_at) / RFU MAPK11 (11762145_a_at) / Fold change /veh MAPK11 (11762145_a_at) / RFU FIZ1 (11724087_x_at) / Fold change /veh FIZ1 (11724087_x_at) / RFU OASL (11726364_x_at) / Fold change /veh OASL (11726364_x_at) / RFU SOX15 (11748057_x_at) / Fold change /veh SOX15 (11748057_x_at) / RFU CD79A (11719716_a_at) / Fold change /veh CD79A (11719716_a_at) / RFU HIST1H1D (11736915_at) / Fold change /veh HIST1H1D (11736915_at) / RFU CASKIN2 (11723855_a_at) / Fold change /veh CASKIN2 (11723855_a_at) / RFU LOC730098 (11760151_x_at) / Fold change /veh LOC730098 (11760151_x_at) / RFU OR4N2 (11742367_at) / Fold change /veh OR4N2 (11742367_at) / RFU PRRT2 (11749266_a_at) / Fold change /veh PRRT2 (11749266_a_at) / RFU SNX32 (11753110_a_at) / Fold change /veh SNX32 (11753110_a_at) / RFU CDHR5 (11726645_a_at) / Fold change /veh CDHR5 (11726645_a_at) / RFU RCAN1 (11760418_a_at) / Fold change /veh RCAN1 (11760418_a_at) / RFU FAM167A (11723789_a_at) / Fold change /veh FAM167A (11723789_a_at) / RFU FAM26E (11764081_at) / Fold change /veh FAM26E (11764081_at) / RFU ISYNA1 (11749810_s_at) / Fold change /veh ISYNA1 (11749810_s_at) / RFU ACY1 (11761880_at) / Fold change /veh ACY1 (11761880_at) / RFU 11764098_at / Fold change /veh 11764098_at / RFU SAMD14 (11745864_x_at) / Fold change /veh SAMD14 (11745864_x_at) / RFU NPB (11741838_a_at) / Fold change /veh NPB (11741838_a_at) / RFU TMPRSS6 (11731388_a_at) / Fold change /veh TMPRSS6 (11731388_a_at) / RFU KRTAP10-2 (11738614_at) / Fold change /veh KRTAP10-2 (11738614_at) / RFU ARHGAP8 /// PRR5-ARHGAP8 (11727945_x_at) / Fold change /veh ARHGAP8 /// PRR5-ARHGAP8 (11727945_x_at) / RFU KRTAP5-7 /// NADSYN1 (11734609_at) / Fold change /veh KRTAP5-7 /// NADSYN1 (11734609_at) / RFU RASL12 (11751679_a_at) / Fold change /veh RASL12 (11751679_a_at) / RFU CDKN2B (11736163_a_at) / Fold change /veh CDKN2B (11736163_a_at) / RFU PRF1 (11729649_at) / Fold change /veh PRF1 (11729649_at) / RFU, ZNF638 /// ZNF638-IT1 / Fold change vs veh, ZNF638 /// ZNF638-IT1 / RFU, PANK3 / Fold change vs veh, PANK3 / RFU, SH3YL1 / Fold change vs veh, SH3YL1 / RFU, ZEB2 / Fold change vs veh, ZEB2 / RFU, NRIP1 / Fold change vs veh, NRIP1 / RFU, PTTG1IP / Fold change vs veh, PTTG1IP / RFU, CAPN2 / Fold change vs veh, CAPN2 / RFU, MED14 / Fold change vs veh, MED14 / RFU, SNORA58 / Fold change vs veh, SNORA58 / RFU, C1orf63 / Fold change vs veh, C1orf63 / RFU, LRRFIP1 / Fold change vs veh, LRRFIP1 / RFU, NDUFAF7 / Fold change vs veh, NDUFAF7 / RFU, SLC12A2 / Fold change vs veh, SLC12A2 / RFU, IBTK / Fold change vs veh, IBTK / RFU, ESF1 / Fold change vs veh, ESF1 / Fold change vs veh, TMEM50B / RFU, TAOK1 / Fold change vs veh, TAOK1 / RFU, ACBD3 / Fold change vs veh, ACBD3 / RFU, TMA16 / Fold change vs veh, TMA16 / RFU, RWDD3 / Fold change vs veh, RWDD3 / RFU, BCAT1 / Fold change vs veh, BCAT1 / RFU, EDEM3 / Fold change vs veh, EDEM3 / RFU, TMEM33 / Fold change vs veh, TMEM33 / RFU, WDR75 / Fold change vs veh, WDR75 / RFU, AHCTF1 / Fold change vs veh, AHCTF1 / RFU, TFRC / Fold change vs veh, TFRC / RFU, ZDHHC17 / Fold change vs veh, ZDHHC17 / RFU, NOM1 / Fold change vs veh, NOM1 / RFU, ARL8B / Fold change vs veh, ARL8B / RFU, ZBTB11 / Fold change vs veh, ZBTB11 / RFU, TAMM41 / Fold change vs veh, TAMM41 / RFU, KIAA1704 /// LOC100996395 / Fold change vs veh, KIAA1704 /// LOC100996395 / RFU, ING1 / Fold change vs veh, ING1 / RFU, TRMT61B / Fold change vs veh, TRMT61B / RFU, FUBP3 / Fold change vs veh, FUBP3 / RFU, TP53 / Fold change vs veh, TP53 / RFU, TNKS2 / Fold change vs veh, TNKS2 / RFU, ZFP14 / Fold change vs veh, ZFP14 / RFU, ACTR2 / Fold change vs veh, ACTR2 / RFU, PPP3R1 / Fold change vs veh, PPP3R1 / RFU, PIK3R1 / Fold change vs veh, PIK3R1 / RFU, HNRNPA1 / Fold change vs veh, HNRNPA1 / RFU, RNF170 / Fold change vs veh, RNF170 / RFU, ZNF28 / Fold change vs veh, ZNF28 / RFU, RNGTT / Fold change vs veh, RNGTT / RFU, OGT / Fold change vs veh, OGT / RFU, BRD1 / Fold change vs veh, BRD1 / RFU, MARS / Fold change vs veh, MARS / RFU, ZNF655 / Fold change vs veh, ZNF655 / RFU, FAHD1 / Fold change vs veh, FAHD1 / RFU, BDP1 / Fold change vs veh, BDP1 / RFU, LRRCC1 / Fold change vs veh, LRRCC1 / RFU, ARID1A / Fold change vs veh, ARID1A / RFU, ZNF146 / Fold change vs veh, ZNF146 / RFU, ZNF330 / Fold change vs veh, ZNF330 / RFU, GPN3 / Fold change vs veh, GPN3 / RFU, C9orf123 / Fold change vs veh, C9orf123 / RFU, N4BP2L2 / Fold change vs veh, N4BP2L2 / RFU, ARFIP1 / Fold change vs veh, ARFIP1 / RFU, FAM179B / Fold change vs veh, FAM179B / RFU, BCL10 / Fold change vs veh, BCL10 / RFU, UHRF1BP1L / Fold change vs veh, UHRF1BP1L / RFU, BET1 / Fold change vs veh, BET1 / RFU, CNOT2 / Fold change vs veh, CNOT2 / RFU, ZNF268 / Fold change vs veh, ZNF268 / Fold change vs veh, ZNF507 / RFU, DGCR2 / Fold change vs veh, DGCR2 / RFU, WDSUB1 / Fold change vs veh, WDSUB1 / Fold change vs veh, HSP90B1 /// MIR3652 / RFU, ADSS / Fold change vs veh, ADSS / RFU, GK / Fold change vs veh, GK / RFU, ZNF148 / Fold change vs veh, ZNF148 / RFU, TAF9 / Fold change vs veh, TAF9 / RFU, SLC1A5 / Fold change vs veh, SLC1A5 / RFU, SLMO2 / Fold change vs veh, SLMO2 / RFU, ABCC4 / Fold change vs veh, ABCC4 / RFU, LOC101060439 /// RAP1B / Fold change vs veh, LOC101060439 /// RAP1B / RFU, RFX7 / Fold change vs veh, RFX7 / RFU, GTPBP10 / Fold change vs veh, GTPBP10 / RFU, CNEP1R1 / Fold change vs veh, CNEP1R1 / RFU, BIVM-ERCC5 /// ERCC5 / Fold change vs veh, BIVM-ERCC5 /// ERCC5 / RFU, ILF3 / Fold change vs veh, ILF3 / RFU 11762660_at / Fold change /veh 11762660_at / RFU VCAN (11757783_s_at) / Fold change /veh VCAN (11757783_s_at) / RFU DDX43 (11728927_at) / Fold change /veh DDX43 (11728927_at) / RFU KRT8 (11758188_x_at) / Fold change /veh KRT8 (11758188_x_at) / RFU NKD1 (11759106_at) / Fold change /veh NKD1 (11759106_at) / RFU SRD5A1 (11742802_a_at) / Fold change /veh SRD5A1 (11742802_a_at) / RFU TPSAB1 /// TPSB2 (11721975_s_at) / Fold change /veh TPSAB1 /// TPSB2 (11721975_s_at) / RFU GSTM3 (11746129_a_at) / Fold change /veh GSTM3 (11746129_a_at) / RFU IL23R (11737362_x_at) / Fold change /veh IL23R (11737362_x_at) / RFU TMEM51 (11727254_a_at) / Fold change /veh TMEM51 (11727254_a_at) / RFU PIWIL2 (11732686_x_at) / Fold change /veh PIWIL2 (11732686_x_at) / RFU ORM1 (11744905_x_at) / Fold change /veh ORM1 (11744905_x_at) / RFU CCDC152 (11743942_at) / Fold change /veh CCDC152 (11743942_at) / RFU ECM1 (11717891_a_at) / Fold change /veh ECM1 (11717891_a_at) / RFU IL23R (11748794_a_at) / Fold change /veh IL23R (11748794_a_at) / RFU TNFAIP8L3 (11732012_x_at) / Fold change /veh TNFAIP8L3 (11732012_x_at) / RFU MBOAT4 (11741988_at) / Fold change /veh MBOAT4 (11741988_at) / RFU 11764193_at / Fold change /veh 11764193_at / RFU TMEM53 (11763286_at) / Fold change /veh TMEM53 (11763286_at) / RFU MAGEB2 (11727129_at) / Fold change /veh MAGEB2 (11727129_at) / RFU TMEM200A (11744735_a_at) / Fold change /veh TMEM200A (11744735_a_at) / RFU CCDC152 (11751479_a_at) / Fold change /veh CCDC152 (11751479_a_at) / RFU FAM211A (11726209_a_at) / Fold change /veh FAM211A (11726209_a_at) / RFU RGS16 (11746705_a_at) / Fold change /veh RGS16 (11746705_a_at) / RFU VCAN (11755009_s_at) / Fold change /veh VCAN (11755009_s_at) / RFU RHOB (11743442_s_at) / Fold change /veh RHOB (11743442_s_at) / RFU RGS16 (11720943_a_at) / Fold change /veh RGS16 (11720943_a_at) / RFU RGS16 (11720944_at) / Fold change /veh RGS16 (11720944_at) / RFU, VPS4B / Fold change vs veh, VPS4B / RFU, CREB1 / Fold change vs veh, CREB1 / RFU, DNAJC13 / Fold change vs veh, DNAJC13 / RFU, GNAQ / Fold change vs veh, GNAQ / RFU, CDK5R1 / Fold change vs veh, CDK5R1 / RFU, ZRANB3 / Fold change vs veh, ZRANB3 / RFU, CUL4A / Fold change vs veh, CUL4A / RFU, CCNY / Fold change vs veh, CCNY / RFU, UFL1 / Fold change vs veh, UFL1 / RFU, COG3 / Fold change vs veh, COG3 / RFU, DIAPH2 / Fold change vs veh, DIAPH2 / RFU, SKA2 / Fold change vs veh, SKA2 / RFU, AFF3 / Fold change vs veh, AFF3 / RFU, LMF1 / Fold change vs veh, LMF1 / RFU, IPO11 / Fold change vs veh, IPO11 / RFU, DFFB / Fold change vs veh, DFFB / RFU, FOXP1 / Fold change vs veh, FOXP1 / RFU, CARD8 / Fold change vs veh, CARD8 / RFU, STRN3 / Fold change vs veh, STRN3 / RFU, ADK / Fold change vs veh, ADK / RFU, RASSF2 / Fold change vs veh, RASSF2 / RFU, WIPF1 / Fold change vs veh, WIPF1 / RFU, LARP1B / Fold change vs veh, LARP1B / RFU, RASA1 / Fold change vs veh, RASA1 / RFU, RB1 / Fold change vs veh, RB1 / RFU, PPFIA1 / Fold change vs veh, PPFIA1 / RFU, MAT2A / Fold change vs veh, MAT2A / RFU, CCT5 / Fold change vs veh, CCT5 / RFU, WDR92 / Fold change vs veh, WDR92 / RFU, CUX1 / Fold change vs veh, CUX1 / RFU, TTC7A / Fold change vs veh, TTC7A / RFU, TMEM135 / Fold change vs veh, TMEM135 / RFU, DEPTOR / Fold change vs veh, DEPTOR / RFU, CPM / Fold change vs veh, CPM / RFU, DNAJB6 / Fold change vs veh, DNAJB6 / RFU, CACNA2D3 / Fold change vs veh, CACNA2D3 / RFU, DTX4 / Fold change vs veh, DTX4 / RFU, TFCP2 / Fold change vs veh, TFCP2 / RFU, GMCL1 /// GMCL1P1 / Fold change vs veh, GMCL1 /// GMCL1P1 / RFU, AEBP2 / Fold change vs veh, AEBP2 / RFU, SNHG1 /// SNORD22 /// SNORD25 /// SNORD26 /// SNORD27 /// SNORD28 /// SNORD29 /// SNORD31 / Fold change vs veh, SNHG1 /// SNORD22 /// SNORD25 /// SNORD26 /// SNORD27 /// SNORD28 /// SNORD29 /// SNORD31 / Fold change (Aza/veh), C12orf56 (ProbeSet 11735607_a_at) / Fold change (ACY-1035/veh), C12orf56 (ProbeSet 11735607_a_at) / Fold change (Aza/veh), FGFR1OP (ProbeSet 11751329_s_at) / Fold change (ACY-1035/veh), FGFR1OP (ProbeSet 11751329_s_at) / Fold change (Aza/veh), VPS36 (ProbeSet 11739960_a_at) / Fold change (ACY-1035/veh), VPS36 (ProbeSet 11739960_a_at) / RFU SYPL1 (11715823_x_at) / Fold change /veh SYPL1 (11715823_x_at) / RFU IGFBP7 (11715501_s_at) / Fold change /veh IGFBP7 (11715501_s_at) / RFU REEP3 (11722064_at) / Fold change /veh REEP3 (11722064_at) / RFU IGLL1 (11728026_x_at) / Fold change /veh IGLL1 (11728026_x_at): dose or concentration left out as unconfirmed",
  "conditions": "MV-4-11 cells, 48 hours",
  "data": [
    {"smiles": "Nc1ccc(-c2cccs2)cc1NC(=O)c1ccc2c(c1)cc(C1CC1)n2CCN1CCOCC1", "note": "[ACY-1035]", "values": [
      {"measurement": "Fold change /veh 11764098_at", "value": 1.17}
    ]}
  ]
}
